Reference: US12234223B2, “Phthalazinone compound, and preparation method therefor and medical use thereof” (SHANGHAI JEMINCARE PHARMACEUTICALS CO., LTD, priority 2020, dated 2025)

Target: T1, Androgen receptor (Homo sapiens, UniProt P10275)
T1 construct: Dmax: a maximum degradation degree of AR in VCaP cells; endogenous in cells; host or cells: VCaP cells
T1 sequence (P10275 1-920): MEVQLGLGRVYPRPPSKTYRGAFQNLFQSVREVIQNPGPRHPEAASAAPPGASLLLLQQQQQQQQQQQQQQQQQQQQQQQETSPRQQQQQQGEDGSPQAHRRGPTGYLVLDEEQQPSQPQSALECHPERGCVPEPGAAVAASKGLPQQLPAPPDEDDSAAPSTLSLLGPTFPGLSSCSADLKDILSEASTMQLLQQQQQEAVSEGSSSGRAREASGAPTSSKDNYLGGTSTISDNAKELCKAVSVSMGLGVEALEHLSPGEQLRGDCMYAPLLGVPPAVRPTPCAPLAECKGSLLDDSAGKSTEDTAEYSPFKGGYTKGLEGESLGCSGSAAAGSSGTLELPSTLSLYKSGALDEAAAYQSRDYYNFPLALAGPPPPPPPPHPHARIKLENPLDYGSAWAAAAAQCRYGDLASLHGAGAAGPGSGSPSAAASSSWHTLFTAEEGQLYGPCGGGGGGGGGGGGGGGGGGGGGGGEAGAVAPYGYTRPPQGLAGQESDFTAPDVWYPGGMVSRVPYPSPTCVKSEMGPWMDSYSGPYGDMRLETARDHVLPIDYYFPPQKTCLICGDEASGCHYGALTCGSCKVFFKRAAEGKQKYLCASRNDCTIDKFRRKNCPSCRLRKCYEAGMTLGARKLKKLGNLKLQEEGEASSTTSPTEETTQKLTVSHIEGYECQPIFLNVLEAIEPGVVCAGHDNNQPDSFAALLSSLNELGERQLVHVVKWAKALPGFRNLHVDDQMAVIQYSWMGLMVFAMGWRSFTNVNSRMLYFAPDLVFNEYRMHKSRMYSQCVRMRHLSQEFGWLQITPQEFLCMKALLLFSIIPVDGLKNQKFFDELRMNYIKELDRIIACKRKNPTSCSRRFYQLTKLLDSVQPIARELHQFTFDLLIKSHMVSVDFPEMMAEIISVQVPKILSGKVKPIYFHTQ
Assay: Androgen receptor In-Cell-Western assay (AR degradation in VCaP cells)
Format: cell-based
Details: 24 hours treatment; for DC50: concentration for half the maximum degradation degree of AR in VCaP cells; for Dmax: maximum degradation degree of AR in VCaP cells
Experimental: This assay evaluated compound performance in VCap cells. An intracellular androgen receptor was assayed by In-Cell-Western according to the assay procedure described below.
In a 96-well cell culture plate (Corning 3599) pretreated by poly-D-Lysin, Vcap cells were seeded to a Vcap cell assay medium [phenol red containing DMEM (Gibco Cat. No.: 11995065); fetal bovine serum FBS (Gibco Cat. No.: 10099141C)] at a volume of 100 μL/well and a cell density of 50,000 cells/well. Cells were cultured for at least two days. • 1. First, cells were treated with a compound. The compound was subjected to a gradient dilution by using DMSO and a cell culture medium, so that DMSO contained in the cell culture plate was diluted to 0.5%: a polypropylene plate was used according to the following protocol: • (1) (i) A 200× stock solution plate was prepared in DMSO; (ii) a 10 mM stock solution was diluted at 1:4 (10 μL stock solution+40 μL DMSO=2000 uM) with DMSO to enter row 2; (iii) a 1:4 (10 μL protac+40 μL DMSO) gradient dilution was performed from row 2 to row 9, row 1 was reserved for a 2000 uM reference compound and row 10 was reserved for DMSO. (iv) There were 8 concentrations (the final concentrations on the 200× plate was 2000 uM, 400 uM, 80 uM, etc.) in total. (2) (i) A 3× stock solution was prepared in the medium; (ii) 3 μL of the 200× stock solution was transferred to 197 μL of the medium (by a 12-channel pipette, from row 1 to row 10), i.e. a 3× stock solution plate. (iii) Uniform mixing was performed for the stock solution plate. (3) (i) The medium of Vcap cells was replaced with a fresh medium, with the medium volume of 100 μL. (ii) The uniformly-mixed 3× stock solution was transferred to the cell culture plate (by the 12-channel pipette, 50 μL of the stock solution was transferred from row 1 to row 10). (iii) The cells were cultured for 24 hours. • 2. The expression level of the intracellular androgen receptor after compound treatment was detected, and assay was performed according to the following method. • (1) (i) An equal volume of 8% paraformaldehyde was added to the cell culture plate for cell fixation. A fixative solution in the cell plate was discarded, and the cell plate was washed three times with PBS. (ii) A Triton solution was prepared (the stock solution was diluted at 1:1000). The solution in the cell plate was discarded, and a volume of 200 μL of a Triton diluent was added to each well. (iii) A 2× blocking solution was prepared (a 10× blocking stock solution was diluted at 1:4). The solution in the cell plate was discarded, and a volume of 100 μL of the 2× blocking solution was added to each well. (iv) A primary antibody solution (Androgen receptor Rabbit mAb, Cell Signaling Technology Cat. No.: 5153; 1:1000 dilution) was prepared. The solution in the cell plate was discarded, a volume of 100 μL of a primary antibody diluent was added to each well, and incubation was performed at 4 degrees overnight. (v) The primary antibody solution was discarded, and the cell plate was washed with 1× Wash buffer (Wash buffer in the present application means a washing buffer solution). (vi) A secondary antibody solution (Goat anti Rabbit IgG (H+L) Secondary Antibody, HRP, Thermo Cat. No.: 31460; 1:5000 dilution) was prepared, and a volume of 100 μL of a secondary antibody diluent was added to each well for incubation. (vii) The secondary antibody solution in the cell plate was discarded, and the cell plate was washed with 1× Wash buffer. (viii) A TMB chromogenic solution (BD Cat. No.: 550534) was prepared, and a volume of 100 μL of the chromogenic solution was added to each well. (ix) A volume of 50 μL of a stop solution (BD Cat. No.: 550534) was added to each well. (x) Absorption values at OD 450 nm and 570 nm were read by EnVision. (2) (i) Normalized analysis was performed for the number of cells in each well. The solution in the cell plate was discarded, and the cell plate was washed three times with wash buffer. […]

DC50 [nM]	Dmax [%]	SMILES
10	97	CC1(C)[C@H](NC(=O)c2ccc(N3CCC(CN4CCN(c5ccc6c(=O)n(C7CCC(=O)NC7=O)ncc6c5)CC4)CC3)cc2)C(C)(C)[C@H]1Oc1ccc(C#N)c(Cl)c1 (stereo partly drawn) [Compound 1]
2.7	126	CC1(C)[C@H](NC(=O)c2ccc(N3CCC(CN4CCN(c5ccc6c(=O)n([C@H]7CCC(=O)NC7=O)ncc6c5)CC4)CC3)cc2)C(C)(C)[C@H]1Oc1ccc(C#N)c(Cl)c1 [Compound 28A]
8.9	169	CC1(C)[C@H](NC(=O)c2ccc(N3CCC(CN4CCN(c5ccc6c(=O)n(C7CCC(=O)NC7=O)nc(F)c6c5)CC4)CC3)cc2)C(C)(C)[C@H]1Oc1ccc(C#N)c(Cl)c1 (stereo partly drawn) [Compound 29]
